Test results taken from US20100204210A1, “METHOD FOR TREATING PULMONARY DISEASES USING RHO KINASE INHIBITOR COMPOUNDS” (priority 2008, published 2010).
Like-named read-outs stand apart in the source and are kept apart here.

Columns and labels:
rat tracheal rings [1] = assay: Relaxation of carbachol-precontracted rat tracheal rings pretreated with vehicle or pro-inflammatory cytokines IL-1β and TNF-α; conditions: 300 nM carbachol, read-out: IC50 for relaxant response
Description: Male Sprague-Dawley rats weighing 301-325 gm were sacrificed by asphyxiation in a CO2 chamber. Trachea were excised, cleaned of connective tissue and cut into cylindrical segments of 2-3 mm length. Tissues were treated for 18 hours at 37° C. in F12 media with penicillin-streptomycin and 0.1% BSA alone or with 10 ng/ml IL-1β and 100 ng/ml TNF-α. IL-1β and TNF-α are pro-inflammatory cytokines. Tissues were then washed free of cytokines with Krebs buffer. Contractile tensions were measured using an isometric force transducer (Grass Instruments) as described for Example 1 and signals were analyzed using specialized software (Chart v5.5, ADInstruments). Tissues were treated with 300 nM carbachol for 10 to 15 minutes to induce a contractile response. Beta adrenergic receptor agonist compounds, isoproterenol or albuterol, were added cumulatively to the bath every 2 to 3 minutes and reductions in tension were recorded. Alternatively, Rho kinase inhibitor compound was added cumulatively to the bath every 30 minutes and reductions in tension were recorded. Basal tension was subtracted from all values and data were reported as a percentage of the maximal carbachol-induced contraction. Data were fit to the Hill equation using GraphPad Prism v5 software.

rat tracheal rings [2] = assay: Relaxation of carbachol-precontracted rat tracheal rings with reduced responsiveness to beta adrenergic receptor agonist; conditions: for response of carbachol-precontracted trachea to beta adrenergic receptor agonist: 300 nM carbachol, 1 μM isoproterenol, 1 μM formoterol or 30 μM albuterol, FIG. 1A-C; for relaxation by second addition of beta agonist after the response to 3 μM formoterol has faded: second dose 3 μM formoterol or 100 μM albuterol
Description: Trachea were excised from male Sprague-Dawley rats, cleaned of connective tissue and cut into cylindrical segments of 2-3 mm length. Two stainless steel wires were guided through the lumen of the tracheal ring. One wire was fixed in the tissue bath and the other was connected to a force transducer via surgical silk. Preparations were mounted in 5 ml water-jacketed organ baths (Radnoti Glass Technology) filled with Krebs buffer (95 mM NaCl, 5 mM KCl, 2.6 mM CaCl2, 1.2 mM MgSO4, 24.9 mM NaHCO3, 1.2 mM KH2PO4, 10 mM glucose) maintained at 37° C. and gassed with 95% O2 and 5% CO2. Indomethacin (1 μM), a cyclooxygenase inhibitor, was added to the Krebs buffer and was present throughout the experiments. Contractile tensions were measured using an isometric force transducer (Grass Instruments) and signals were analyzed using specialized software (Chart v5.5, ADInstruments). The preparations were allowed to equilibrate at a resting tension of 0.3 to 0.5 gm prior to two challenges with 60 mM KCl to assess tissue viability. After washing, tissues were treated with 300 nM carbachol for 10 to 15 minutes to induce a contractile response. Tissues were then treated with isoproterenol, formoterol, or albuterol to induce a relaxant response. […] After 10 minutes of formoterol treatment, these tissues were treated with a second dose of formoterol or with albuterol. After an additional 10 minutes, tissues were treated with a Rho kinase inhibitor. Basal tension was subtracted from all values and data were reported as a percentage of the maximal carbachol-induced contraction. Four parameters were analyzed for quantitation of efficacies: i) the maximal relaxation induced by initial formoterol treatment, ii) the fade of the response to the initial formoterol treatment, iii) the maximal relaxation induced by the second addition of a beta adrenergic receptor agonist, and iv) the maximal relaxation induced by Rho kinase inhibitor.

[3] = Pulmonary function test (FEV1 after methacholine provocation) in human patients treated with formoterol; assay type: in vivo; conditions: formoterol group compared to the placebo group, after 2 weeks
Description: Patients with asthma or COPD are randomized to albuterol or Rho kinase inhibitor compound test groups. After 2-weeks of run-in period, subjects are given a methacholine provocation test (MPT) to induce bronchoconstriction followed by treatment with increasing doses of albuterol or with increasing doses of Rho kinase inhibitor compound to induce bronchorelaxation to establish the subject's baseline response to albuterol or Rho kinase inhibitor compound. Subjects from both test groups are then randomized to inhaled formoterol twice daily or placebo for 2 weeks. At the end of the trial period, the albuterol test group subjects are again administered a methacholine provocation test to induce bronchoconstriction followed by treatment with increasing doses of albuterol. Similarly, the Rho kinase inhibitor compound test group subjects are again administered a methacholine provocation test to induce bronchoconstriction followed by treatment with increasing doses of Rho kinase inhibitor compound to induce bronchorelaxation. The change in FEV1 after albuterol inhalation or administration of Rho kinase inhibitor compound is measured.

[4] = cytokine-pretreated tissue (10 ng/ml IL-1β and 100 ng/ml TNF-α, 18 hours)

CC(C)NCC(O)c1ccc(O)c(O)c1 (centres unmarked) [isoproterenol]
IC50 (rat tracheal rings [1]; [4]): 71 nM
IC50 (rat tracheal rings [1]; vehicle-pretreated tissue): 33 nM
response of carbachol-precontracted trachea to beta adrenergic receptor agonist (rat tracheal rings [2]): initial rapid and partial relaxation of the tissue followed by a slower fade of the response to a more contractile state

CC(C)(C)NCC(O)c1ccc(O)c(CO)c1 (centres unmarked) [albuterol]
IC50 (rat tracheal rings [1]; [4]): 411 nM
IC50 (rat tracheal rings [1]; vehicle-pretreated tissue): 239 nM
response of carbachol-precontracted trachea to beta adrenergic receptor agonist (rat tracheal rings [2]): initial rapid and partial relaxation of the tissue followed by a slower fade of the response to a more contractile state
relaxation by second addition of beta agonist after the response to 3 μM formoterol has faded (rat tracheal rings [2]): ineffective in relaxing the tracheal preparation
bronchodilator response as measured by FEV1 [3]: decrease in the bronchodilator response

COc1ccc(CC(C)NCC(O)c2ccc(O)c(NC=O)c2)cc1 (centres unmarked) [formoterol]
response of carbachol-precontracted trachea to beta adrenergic receptor agonist (rat tracheal rings [2]): initial rapid and partial relaxation of the tissue followed by a slower fade of the response to a more contractile state
maximal relaxation induced by initial formoterol treatment (rat tracheal rings [2]; 3 μM formoterol, FIGS. 4-7): approximately 30 % of the initial carbachol response
relaxation by second addition of beta agonist after the response to 3 μM formoterol has faded (rat tracheal rings [2]): ineffective in relaxing the tracheal preparation
